Tests used:
[1] = system: CD36+ erythroid progenitors from cord blood; assay: Toxicity of KPT on CD36+ erythroid progenitors, normal EPO; format: cell-based, human; details: day 6 (D6) of culture; 33 nM, 100 nM, 333 nM and 1000 nM; normal concentrations of EPO; until 20 h of treatment
Method: FIG. 3A. KPT is not toxic for CD36+ erythroid progenitors from cord blood at day 6 (D6) of culture, when diluted at concentrations 33 nM, 100 nM, 333 nM and 1000 nM in CD36+ culture media, with normal concentrations of erythropoietin (EPO), until 20 h of treatment.
(§1) Umbilical cord blood units from normal full-term deliveries were obtained, after informed mother's consent, from the Obstetrics Unit of Hôpital Necker-Enfants Malades. CD36+ erythroid progenitors, generated from 7 days IL-6+IL3+SCF− cultured CD34 progenitors isolated from cord blood (Miltenyi CD34 Progenitor Cell Isolation Kit), were cultured in the presence of IL3+SCF+Epo in IMDM (Gibco cell culture) supplemented with 15% BIT 9500 (Stem Cell Technologies).

[2] = system: CD36+D6 erythroid progenitors from cord blood; assay: Cell death of CD36+D6 cells during EPO starvation; format: cell-based, human; details: EPO starvation during 20 h (80% of cell death without KPT)
Method: FIG. 3B. EPO starvation during 20 h results in 80% of cell death. Treatment of CD36+D6 with KPT at 100 nM, 333 nM during EPO starvation decreases cell death, of 49% and 39% respectively, compared to the absence of KPT treatment.
as §1

[3] = system: HSP70 nuclear localization in beta-thalassemia CD36+ cells; assay: HSP70 localization and GATA1 fluorescence in beta-thalassemia CD36+ cells; format: cell-based, human
Method: FIG. 8. CD36+ cells from the same experiment as FIG. […] Percentages of cells containing HSP70 located in the nucleus (black) or in the cytoplasm (grey), gated on the total population of cells analyzed, for the different treatment conditions: KPT 0 (a), KPT 100 nM (b) and KPT 1000 nM (c). d) HSP70 cytoplasm/nuclear ratio for the three treatment conditions e) Mean intensity and standard deviation for GATA1 transcription factor fluorescence.
(§2) Data from FIG. 6 and FIG. 7 are from two different experiments on CD36+ cells from a beta-thalassemia patient. Data from FIG. 8 have been performed with cells from FIG. 7 experiment. Beta-thalassemia erythroblasts were generated in vitro from peripheral blood circulating CD34+ cells from an adult patient with beta-thalassemia major (β^0-TM). This study was performed according to the Helsinky Declaration with approval from the ethics committee of our institution.
Amnis Technology enables to analyse fluorescence localization in a large number of cells beforehand labelled. Here we show the percentage of cells positive for HSP70 labelling in the nucleus, or in the cytoplasm, for conditions KPT 0, 100 nM and 1000 nM (FIG. 8). We can observe that the fraction of cells positive for HSP70 in the nucleus increases in KPT 100 nM and 1000 nM conditions (FIGS. 8b and 8c), compared to KPT 0 (FIG. 8a).

[4] = system: CD36+ cells derived from circulating CD34+ cells from Beta thalassemia major patient; assay: Proliferation, cell death and terminal maturation of beta-thalassemia CD36+ cells; format: cell-based, human
Method: FIG. 6. CD36+ cells, derived from circulating CD34+ cells from Beta thalassemia major patient, were treated or not with KPT molecule (KPT 0=DMSO, KPT 100=100 nM, KPT 1000=1000 nM), and analysed at 24 h, 48 h, 72 h and 96 h of treatment. Day 0 of treatment corresponds to day 5 of CD36+ culture. a) Proliferation of CD36+ cells between 24 h and 96 h, for the different conditions of KPT treatment. b) Cell death of CD36+ cells between 48 h and 96 h, for the different conditions of KPT treatment. c) Flow cytometry analysis of Mean fluorescence intensity (MFI) for Band 3 protein, in CD36+ cells, in the different conditions of KPT treatment. d) MGG count of immature, polychromatophiles and acidophiles+reticulocytes at 96 h of treatment, for the different conditions of KPT treatment and e) corresponding maturation indexes.
FIG. 7: CD36+ cells, derived from circulating CD34+ cells from Beta thalassemia major patient, were treated or not with KPT molecule (KPT 0=DMSO, KPT 100=100 nM, KPT 1000=1000 nM), and analysed at 24 h, 48 h, and 72 h of treatment. Day 0 of treatment corresponds to day 6 of CD36+ culture. a) Proliferation of CD36+ cells between 24 h and 72 h, for the different conditions of KPT treatment. b) Cell death of CD36+ cells between 24 h and 72 h, for the different conditions of KPT treatment. c) Flow cytometry analysis of MFI for Band 3 protein, in CD36+ cells, in the different conditions of KPT treatment. d) Flow cytometry analysis of the number of small, alive, CD36+ cells positive for fœtal haemoglobin in the different conditions of KPT treatment. e) MGG count of immature, polychromatophiles and acidophiles+reticulocytes at 48 h of treatment, for the different conditions KPT 0 and KPT 100 nM and f) corresponding maturation indexes.
as §2
In vitro, maturation is arrested at the polychromatophilic stage in beta-thalassemia erythroid progenitors. To quantify the maturation arrest in beta-thalassemia cells, we use an index of terminal maturation as the number (acidophilic cells+reticulocytes per slide)*100 divided by the number of polychromatophilic cells per slide (Arlet J b et al. Nature oct 2014).

[5] = system: HSP70 nuclear retention in CD36+D6 from cord blood; assay: HSP70 nuclear retention in cord blood CD36+D6 under EPO starvation; format: cell-based, human; details: after 20 h of treatment
Method: as §1
5·10^4 cells were spin on slides, acetone fixated, hydrated with cold 1×PBS 1% BSA for 30 minutes, treated with formaldehyde for 15 min (Sigma), then with methanol (Prolabo) for 10 minutes at room temperature. Cells were then permeabilized with 1×PBS 0.2% triton X100 (Sigma) for 10 min at 4° C., washed and incubated in 10% BSA for 30 minutes. They were then sequentially incubated with antibodies diluted in 1×PBS 1% BSA 0.1% tween (Sigma). Nuclei were stained with DAPI and slides were examined with a confocal laser microscope (LSM 700 Carl Zeiss).

XPO1 = XPO1 (Homo sapiens, UniProt O14980); details: cited from earlier work
Chain of XPO1 (O14980 whole entry): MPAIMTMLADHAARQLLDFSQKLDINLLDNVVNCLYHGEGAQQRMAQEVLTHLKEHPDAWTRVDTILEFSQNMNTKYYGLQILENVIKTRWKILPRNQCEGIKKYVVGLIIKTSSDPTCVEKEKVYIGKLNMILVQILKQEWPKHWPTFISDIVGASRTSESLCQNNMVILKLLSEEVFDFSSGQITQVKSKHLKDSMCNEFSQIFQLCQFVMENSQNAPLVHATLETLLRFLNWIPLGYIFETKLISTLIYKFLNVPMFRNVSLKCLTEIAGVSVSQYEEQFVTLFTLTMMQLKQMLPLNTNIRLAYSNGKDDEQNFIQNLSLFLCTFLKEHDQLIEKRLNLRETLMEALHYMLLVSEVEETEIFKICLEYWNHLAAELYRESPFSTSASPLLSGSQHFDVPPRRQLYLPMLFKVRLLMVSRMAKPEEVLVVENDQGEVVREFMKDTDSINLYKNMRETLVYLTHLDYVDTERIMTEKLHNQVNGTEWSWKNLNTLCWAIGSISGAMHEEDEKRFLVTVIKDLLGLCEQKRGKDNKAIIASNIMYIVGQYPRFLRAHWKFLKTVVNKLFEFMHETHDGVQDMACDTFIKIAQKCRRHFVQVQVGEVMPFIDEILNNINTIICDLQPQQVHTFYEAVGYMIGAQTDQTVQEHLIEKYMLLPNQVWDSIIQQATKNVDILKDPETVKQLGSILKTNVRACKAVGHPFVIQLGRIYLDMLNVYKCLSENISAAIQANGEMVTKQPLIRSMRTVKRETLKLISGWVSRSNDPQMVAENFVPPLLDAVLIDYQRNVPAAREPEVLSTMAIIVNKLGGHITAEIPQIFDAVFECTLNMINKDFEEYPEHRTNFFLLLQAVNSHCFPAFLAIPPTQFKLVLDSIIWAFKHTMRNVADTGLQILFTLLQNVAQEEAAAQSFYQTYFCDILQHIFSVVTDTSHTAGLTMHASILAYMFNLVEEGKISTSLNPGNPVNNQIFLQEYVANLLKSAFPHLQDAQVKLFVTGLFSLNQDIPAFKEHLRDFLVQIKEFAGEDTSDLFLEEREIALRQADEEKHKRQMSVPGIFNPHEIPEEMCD

## FC(F)(F)c1cc(-c2ncn(/C=C\c3nnco3)n2)cc(C(F)(F)F)c1 [KPT]
[1]
  toxicity for CD36+ erythroid progenitors: not toxic
[2]; KPT 100 nM
  decrease of cell death compared to the absence of KPT treatment: 49%
[2]; KPT 333 nM
  decrease of cell death compared to the absence of KPT treatment: 39%
[3]; KPT 100 nM and 1000 nM compared to KPT 0, 24 h of treatment
  HSP70 cyto/nuclear fraction: decrease
[3]; KPT 100 nM and 1000 nM compared to KPT 0, 24 h of treatment, Amnis
  fraction of cells positive for HSP70 in the nucleus: increases
[3]; KPT treatment conditions of FIG. 8, 24 h of treatment
  mean of fluorescence intensity of GATA1 labelling: increase
[3]; beta-thalassemia CD36+D8 cells, 72 h of treatment at 100 nM, compared to non treated cells
  HSP70 nuclear localization: induces HSP70 nuclear localization
[4]; 72 hours of treatment with 1000 nM, compared to KPT 0 and KPT 100 nM
  proportion of HbF positive among the population of small alive cells: higher
[4]; KPT 100 nM and 1000 nM compared to control condition KPT 0
  maturation index (acidophilic cells+reticulocytes)*100 / polychromatophilic cells: increases
[4]; KPT 100 nM or 1000 nM, at 96 h of treatment (FIG. 6c) and at 72 h of treatment (FIG. 7c), flow cytometry
  mean fluorescence intensity (MFI) of Band 3 protein labelling: increases
[4]; KPT 1000 nM compared to KPT 0 and KPT 100 nM
  cytotoxicity (cell death of CD36+ cells): little cytotoxicity
[4]; KPT 1000 nM compared to KPT 0 and KPT 100 nM, only in the experiment with high proliferation rate in control condition
  proliferation of CD36+ cells: decreased proliferation
[5]
  HSP70 nuclear retention: induces HSP70 nuclear retention

## CCC(=C/[C@H](C)C/C=C/C(C)=C/[C@@H](C)C(=O)[C@@H](C)[C@H](O)[C@@H](C)C/C(C)=C/C(=O)O)/C=C/[C@@H]1OC(=O)C=C[C@@H]1C [Leptomycin B]
XPO1
  HSP70 nuclear retention in erythroid precursor cells: induces HSP70 nuclear retention

— patent US9861615B2, “Methods and pharmaceutical compositions for the treatment of beta-thalassemias” (INSERM (INSTITUT NATIONAL DE LA SANTE ET DE LA RECHERCHE …, priority 2013, dated 2018)
